The assay has as its target T1, human A2a receptor (Homo sapiens, UniProt P29274).
T1 construct: purchased Perkin-Elmer RBHA2AM400UA; host or cells: HEK293 cells, used as a membrane preparation
The assay can be described thus: A2a receptor competition binding assay (Scintillation Proximity). The following applies: membranes from HEK293 cells expressing human A2a receptor; 0.5 nM tritiated ligand; Cheng-Prusoff; read-out: A2a Ki. The essentials: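 HEK293 membranes bearing the human receptor, pretreated with adenosine deaminase, competed against 0.5 nM tritiated pyrazolotriazolopyrimidine antagonist with compound at 3000–0.15 nM final in DPBS plus 10 mM MgCl2. SPA bead readout after 1 h at room temperature; Ki from EC50 via Cheng-Prusoff.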
For orientation: In a scintillation proximity assay essentially only radioactivity close to the scintillant gives light.

Bounds are passed on as bounds.

Broadly, the Ki is the dissociation constant of the complex between target and ligand, obtained from inhibition or displacement.

T1 sequence (P29274 whole entry): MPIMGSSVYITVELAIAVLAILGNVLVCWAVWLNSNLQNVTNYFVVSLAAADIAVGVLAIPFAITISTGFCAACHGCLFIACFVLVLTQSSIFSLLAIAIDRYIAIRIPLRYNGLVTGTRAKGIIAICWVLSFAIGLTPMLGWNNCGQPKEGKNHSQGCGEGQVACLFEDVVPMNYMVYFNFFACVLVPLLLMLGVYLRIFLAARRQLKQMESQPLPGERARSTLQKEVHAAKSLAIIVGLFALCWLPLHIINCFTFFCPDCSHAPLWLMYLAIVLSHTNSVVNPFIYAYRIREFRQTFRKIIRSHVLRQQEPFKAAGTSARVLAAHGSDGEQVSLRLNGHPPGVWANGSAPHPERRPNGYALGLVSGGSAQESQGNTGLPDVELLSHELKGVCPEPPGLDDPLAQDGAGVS

Consider `CC1(O)CCN(Cc2cn3c(N)nc4ccccc4c3n2)CC1` [Ex-109, 1-((5-aminoimidazo[1,2-c]quinazolin-2-yl)methyl)-4-methylpiperidin-4-ol], for which the inhibitory constant (Ki) is 2460 nM.

Consider `COc1cccc2c1nc(N)n1cc(CN3CCN(c4ccccc4)CC3)nc21` [Ex-110, 7-methoxy-2-((4-phenylpiperazin-1-yl)methyl)imidazo[1,2-c]quinazolin-5-amine], for which the Ki amounted to 53.2 nM. The value for `Nc1nc2c(F)cccc2c2nc(CN3CCN(Cc4ccccc4)CC3)cn12` [Ex-111, 2-((4-benzylpiperazin-1-yl)methyl)-7-fluoroimidazo[1,2-c]quinazolin-5-amine] was 160 nM; that for `CCN1CCN(Cc2cn3c(N)nc4c(F)cccc4c3n2)CC1` [Ex-112, 2-((4-ethylpiperazin-1-yl)methyl)-7-fluoroimidazo[1,2-c]quinazolin-5-amine] was 520 nM; that for `Nc1nc2c(F)cccc2c2nc(CN3CCN(CCc4ccccc4)CC3)cn12` [Ex-113, 7-fluoro-2-((4-phenethylpiperazin-1-yl)methyl)imidazo-[1,2-c]quinazolin-5-amine] was 76 nM. The value for `Nc1nc2c(F)cccc2c2nc(CN3CCC(Cc4ccccc4)CC3)cn12` [Ex-114, 2-((4-benzylpiperidin-1-yl)methyl)-7-fluoroimidazo[1,2-c]quinazolin-5-amine] was 130 nM; that for `Nc1nc2c(F)cccc2c2nc(CN3CCOCC3)cn12` [Ex-115, 7-fluoro-2-(morpholinomethyl) imidazo[1,2-c] quinazolin-5-amine] was 380 nM; that for `Nc1nc2ccccc2c2nc(CN3CCN(c4ccc(F)cc4F)CC3)cn12` [Ex-116, 2-((4-(2,4-difluorophenyl)piperazin-1-yl)methyl) imidazo[1,2-c] quinazolin-5-amine] was 1000 nM. Under `Nc1nc2c(F)cccc2c2nc(CN3CCOc4ccccc43)cn12` [Ex-117, 2-((2,3-dihydro-4H-benzo[b][1,4]oxazin-4-yl)methyl)-7-fluoroimidazo[1,2-c]quinazolin-5-amine] stands 4 nM.

On to `Nc1nc2c(F)cccc2c2nc(CN3CCOc4cccnc43)cn12` [Ex-118, 2-((2,3-dihydro-4H-pyrido[3,2-b][1,4]oxazin-4-yl)methyl)-7-fluoroimidazo[1,2-c]quinazolin-5-amine], for which the Ki came to 3.9 nM. Under `Nc1nc2c(F)cccc2c2nc(CN3CCCN(c4ccccn4)CC3)cn12` [Ex-119, 7-fluoro-2-((4-(pyridin-2-yl)-1,4-diazepan-1-yl)methyl)imidazo[1,2-c]quinazolin-5-amine] stands 210 nM.

On to `COc1cccc2c1nc(N)n1cc(CN3CCc4cccnc4C3)nc21` [Ex-120, 2-((5,8-dihydro-1,7-naphthyridin-7(6H)-yl)methyl)-7-methoxyimidazo[1,2-c]quinazolin-5-amine], for which the inhibition constant Ki was 4.2 nM. Take `COc1cccc2c1nc(N)n1cc(CN3CCc4ccccc4C3)nc21` [Ex-121, 2-((3,4-dihydroisoquinolin-2(1H)-yl)methyl)-7-methoxyimidazo[1,2-c]quinazolin-5-amine]: the Ki came out at 3.7 nM. `COc1cccc2c1nc(N)n1cc(CN3Cc4cccnc4C3)nc21` [Ex-122, 2-((5,7-dihydro-6H-pyrrolo[3,4-b]pyridin-6-yl)methyl)-7-methoxyimidazo[1,2-c]quinazolin-5-amine]: the Ki worked out at 11 nM.

As for `COc1cccc2c1nc(N)n1cc(CN3Cc4ccc(F)cc4C3)nc21` [Ex-123, 2-((5-fluoroisoindolin-2-yl)methyl)-7-methoxyimidazo[1,2-c]quinazolin-5-amine], the Ki worked out at 9.2 nM. The value for `Nc1nc2c(F)cccc2c2nc(CN3Cc4ccc(F)cc4C3)cn12` [Ex-124, 7-fluoro-2-((5-fluoroisoindolin-2-yl)methyl)imidazo[1,2-c]quinazolin-5-amine] was 18 nM; that for `Nc1nc2c(F)cccc2c2nc(CN3CCCc4cc(Br)ccc43)cn12` [Ex-125, 2-((6-bromo-3,4-dihydroquinolin-1(2H)-yl)methyl)-7-fluoroimidazo[1,2-c]quinazolin-5-amine] was 8.1 nM. The value for `Nc1nc2c(F)cccc2c2nc(CN3Cc4ccc(Br)cc4C3)cn12` [Ex-126, 2-((5-bromoisoindolin-2-yl)methyl)-7-fluoroimidazo[1,2-c]quinazolin-5-amine] was 38 nM; that for `Nc1nc2c(F)cccc2c2nc(CN3CCc4cc(NC(=O)c5ccccn5)ccc4C3)cn12` [Ex-127, N-(2-((5-amino-7-fluoroimidazo[1,2-c]quinazolin-2-yl)methyl)-1,2,3,4-tetrahydroisoquinolin-6-yl)picolinamide] was 64 nM. For the compound `CC(=O)Nc1ccc2c(c1)CCN(Cc1cn3c(N)nc4c(F)cccc4c3n1)C2` [Ex-128, N-(2-((5-amino-7-fluoroimidazo[1,2-c]quinazolin-2-yl)methyl)-1,2,3,4-tetrahydroisoquinolin-6-yl)acetamide], the Ki came to 97 nM. The value for `Nc1nc2c(F)cccc2c2nc(CN3CCc4cc(CC(=O)Nc5ccccn5)ccc4C3)cn12` [Ex-129, 2-(2-((5-amino-7-fluoroimidazo[1,2-c]quinazolin-2-yl)methyl)-1,2,3,4-tetrahydroisoquinolin-6-yl)-N-(pyridin-2-yl)acetamide] was 51 nM; that for `Nc1nc2c(F)cccc2c2nc(CN3CCc4cc(-c5ccc(F)c(F)c5)ccc4C3)cn12` [Ex-130, 2-((6-(3,4-difluorophenyl)-3,4-dihydroisoquinolin-2(1H)-yl)methyl)-7-fluoroimidazo[1,2-c]quinazolin-5-amine] was 46 nM; that for `Nc1nc2c(F)cccc2c2nc(CN3CCc4ccc(CC(=O)Nc5ccccn5)cc4C3)cn12` [Ex-131, 2-(2-((5-amino-7-fluoroimidazo[1,2-c]quinazolin-2-yl)methyl)-1,2,3,4-tetrahydroisoquinolin-7-yl)-N-(pyridin-2-yl)acetamide] was 8.4 nM. Under `COc1cccc2c1nc(N)n1cc(CN3CCN4CCCC[C@@H]4C3)nc21` [Ex-132, (R)-7-methoxy-2-((octahydro-2H-pyrido[1,2-a]pyrazin-2-yl)methyl)imidazo[1,2-c]quinazolin-5-amine] stands 150 nM; under `COc1cccc2c1nc(N)n1cc(CN3CCc4ccc(-c5cncnc5)cc4C3)nc21` [Ex-134], 7.9 nM; under `COc1cccc2c1nc(N)n1cc(CN3CCc4ccc(-c5ccc(F)c(F)c5)cc4C3)nc21` [Ex-135, 2-((7-(3,4-difluorophenyl)-3,4-dihydroisoquinolin-2(1H)-yl)methyl)-7-methoxyimidazo[1,2-c]quinazolin-5-amine], 10.4 nM. On to `Nc1nc2c(F)cccc2c2nc(CN3CCN(C(=O)Cc4ccccn4)c4ccccc43)cn12` [Ex-136, 1-(4-((5-amino-7-fluoroimidazo[1,2-c]quinazolin-2-yl)methyl)-3,4-dihydroquinoxalin-1(2H)-yl)-2-(pyridin-2-yl)ethan-1-one], for which the Ki turned out to be 12 nM. The value for `COc1cccc2c1nc(N)n1cc(CCN3Cc4cccnc4C3)nc21` [Ex-137, 2-(2-(5,7-dihydro-6H-pyrrolo[3,4-b]pyridin-6-yl)ethyl)-7-methoxyimidazo[1,2-c]quinazolin-5-amine] was 13.1 nM; that for `Nc1nc2c(F)cccc2c2nc(CCN3CCN(c4ccccn4)CC3)cn12` [Ex-138] was 28 nM; that for `Nc1nc2c(Br)cccc2c2nc(CNCc3ccccc3)cn12` [Ex-140, 2-((benzylamino)methyl)-7-bromoimidazo[1,2-c]quinazolin-5-amine] was 9.1 nM. The value for `Nc1nc2c(Br)cccc2c2nc(CNCc3cccnc3)cn12` [Ex-141, 7-bromo-2-(((pyridin-3-ylmethyl)amino)methyl) imidazo[1,2-c]quinazolin-5-amine] was 9.5 nM.

With `Nc1nc2c(F)cccc2c2nc(CNCc3ccc(F)cc3)cn12` [Ex-142], the Ki turned out to be 130 nM. For `COc1cccc2c1nc(N)n1cc(CNCc3ccccc3)nc21` [Ex-143, 2-((benzylamino)-methyl)-7-methoxy-imidazo[1,2-c]-quinazolin-5-amine], the Ki worked out at 4 nM. The value for `COc1cccc2c1nc(N)n1cc(CN3CC(c4cccc(Cl)c4)C3)nc21` [Ex-144, 2-((3-(3-chlorophenyl)azetidin-1-yl)methyl)-7-methoxyimidazo[1,2-c]quinazolin-5-amine] was 13 nM. The value for `COc1cccc2c1nc(N)n1cc(CNCc3cccnc3)nc21` [Ex-145, 7-methoxy-2-(((pyridin-3-ylmethyl)amino)methyl)imidazo [1,2-c]quinazolin-5-amine] was 28 nM; that for `Nc1nc2c(F)cccc2c2nc(COc3ccccc3)cn12` [Ex-146, 7-fluoro-2-(phenoxymethyl)imidazo[1,2-c]quinazolin-5-amine] was 33 nM; that for `COc1cccc(OCc2cn3c(N)nc4c(F)cccc4c3n2)c1` [Ex-147] was 54 nM. Under `CCn1cc(-c2cccc3c2nc(N)n2cc(Cc4ccccc4)nc32)cn1` [Ex-150, 2-benzyl-7-(1-ethyl-1H-pyrazol-4-yl)imidazo[1,2-c]quinazolin-5-amine] stands 760 nM; under `CCn1cc(-c2cccc3c2nc(N)n2cc(CN(C)Cc4cccc(Cl)c4)nc32)cn1` [Ex-151, 2-(((3-chlorobenzyl)-(methyl)amino)-methyl)-7-(1-ethyl-1H-pyrazol-4-yl)imidazo[1,2-c]-quinazolin-5-amine], over 2200 nM.

For `Cc1noc(C)c1-c1cccc2c1nc(N)n1cc(Cc3ccccc3)nc21` [Ex-152], the Ki stood at 35 nM.

Consider `Cc1noc(C)c1-c1cccc2c1nc(N)n1cc(CNCc3ccccc3)nc21` [Ex-153, 2-((benzylamino)-methyl)-7-(3,5-dimethyl-isoxazol-4-yl)-imidazo[1,2-c]-quinazolin-5-amine], for which the inhibitory constant (Ki) is over 2200 nM. Consider `Cc1noc(C)c1-c1cccc2c1nc(N)n1cc(Cc3ccc(F)cc3)nc21` [Ex-154, 7-(3,5-dimethylisoxazol-4-yl)-2-(4-fluorobenzyl)imidazo[1,2-c]quinazolin-5-amine], for which the inhibitory constant (Ki) came out at 48 nM.

The record behind these values is patent US11498923B2 (Merck Sharp & Dohme Corp., priority 2017, dated 2022).
